Measured values as given in patent US20260317344A1, “EGFR INHIBITORS FOR TREATING DISEASE” (BLOSSOMHILL THERAPEUTICS, INC., priority 2023, published 2026).
pIC50: −log10 of the molar value.

Columns and labels:
EGFR (L858R) = EGFR (L858R) (Homo sapiens, UniProt P00533, L858R); assay: HotSpot radiometric kinase assay, inhibition of EGFR L858R mutant; type: biochemical; conditions: 33P ATP, room temperature, 120 m
Procedure, shortened: (§1)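 Kinase/substrate pairs in 20 mM HEPES pH 7.5, 10 mM MgCl2, 1 mM EGTA, 0.02% Brij35, 0.02 mg/ml BSA, 0.1 mM Na3VO4, 2 mM DTT, 1% DMSO were preincubated ~20 min with compound. ATP plus 33P-ATP (10 µM final) was added for 120 min at room temperature, and P81 filter binding gave IC50 values.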

EGFR (L858R/T790M) = EGFR (L858R/T790M) (Homo sapiens, UniProt P00533, L858R/T790M); assay: HotSpot radiometric kinase assay, inhibition of EGFR L858R/T790M mutant; type: biochemical; conditions: 33P ATP, room temperature, 120 m
Procedure, shortened: (§2)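 Kinase/substrate pairs in 20 mM HEPES pH 7.5, 10 mM MgCl2, 1 mM EGTA, 0.02% Brij35, 0.02 mg/ml BSA, 0.1 mM Na3VO4, 2 mM DTT, 1% DMSO, preincubated ~20 min with compound. Reaction started with ATP/33P-ATP ([…]), run 120 min at room temperature; phosphorylation read by P81 filter binding, IC50 from curve fits.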

EGFR (L858R/T790M/C797S) = EGFR (L858R/T790M/C797S) (Homo sapiens, UniProt P00533, C797S/L858R/T790M); assay: HotSpot radiometric kinase assay, inhibition of EGFR L858R/T790M/C797S mutant; type: biochemical; conditions: 33P ATP, room temperature, 120 m
Chain of EGFR (L858R/T790M/C797S) (P00533 25-1210 T790M/C797S/L858R): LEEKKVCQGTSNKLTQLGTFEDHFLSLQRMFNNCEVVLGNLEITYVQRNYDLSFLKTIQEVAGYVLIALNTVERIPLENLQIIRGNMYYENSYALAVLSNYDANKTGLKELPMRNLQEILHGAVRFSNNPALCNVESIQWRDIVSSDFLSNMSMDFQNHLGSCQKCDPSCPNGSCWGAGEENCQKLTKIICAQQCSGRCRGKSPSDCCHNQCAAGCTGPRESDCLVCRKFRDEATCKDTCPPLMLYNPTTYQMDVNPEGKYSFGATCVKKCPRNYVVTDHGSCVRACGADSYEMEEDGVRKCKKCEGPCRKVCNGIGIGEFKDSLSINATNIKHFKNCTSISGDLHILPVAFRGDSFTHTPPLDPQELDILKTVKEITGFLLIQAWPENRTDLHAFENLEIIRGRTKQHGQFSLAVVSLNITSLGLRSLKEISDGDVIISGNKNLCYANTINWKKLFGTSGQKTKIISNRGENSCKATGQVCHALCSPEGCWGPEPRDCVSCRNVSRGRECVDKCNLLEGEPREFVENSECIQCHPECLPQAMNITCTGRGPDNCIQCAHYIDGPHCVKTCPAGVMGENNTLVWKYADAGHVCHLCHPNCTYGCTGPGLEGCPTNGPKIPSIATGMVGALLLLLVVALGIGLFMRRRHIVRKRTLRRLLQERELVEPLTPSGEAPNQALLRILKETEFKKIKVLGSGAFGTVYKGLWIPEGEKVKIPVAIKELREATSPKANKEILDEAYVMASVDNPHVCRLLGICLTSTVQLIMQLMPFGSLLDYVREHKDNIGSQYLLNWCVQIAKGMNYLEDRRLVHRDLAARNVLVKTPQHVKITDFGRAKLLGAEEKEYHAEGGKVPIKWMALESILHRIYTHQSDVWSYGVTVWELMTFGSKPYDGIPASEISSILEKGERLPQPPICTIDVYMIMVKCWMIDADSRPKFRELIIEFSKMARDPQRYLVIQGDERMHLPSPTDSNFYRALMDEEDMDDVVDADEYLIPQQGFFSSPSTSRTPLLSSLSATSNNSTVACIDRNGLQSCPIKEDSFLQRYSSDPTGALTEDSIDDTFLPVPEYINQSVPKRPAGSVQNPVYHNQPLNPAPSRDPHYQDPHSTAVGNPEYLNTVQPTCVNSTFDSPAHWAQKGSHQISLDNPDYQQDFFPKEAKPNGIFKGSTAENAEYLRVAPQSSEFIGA
Procedure, shortened: as §2

EGFR (D746-750) = EGFR (D746-750) (Homo sapiens, UniProt P00533, DEL746-750); assay: HotSpot radiometric kinase assay, inhibition of EGFR 746-750 mutant; type: biochemical; conditions: 33P ATP, room temperature, 120 m
Procedure, shortened: as §2

EGFR (D746-750/C797S) = EGFR (D746-750/C797S) (Homo sapiens, UniProt P00533, C797S/DEL746-750); assay: HotSpot radiometric kinase assay, inhibition of EGFR 746-750/C797S mutant; type: biochemical; conditions: 33P ATP, room temperature, 120 m
Procedure, shortened: as §2

EGFR (D770_N771insNPG) = EGFR (D770_N771insNPG) (Homo sapiens, UniProt P00533, INS770NPG); assay: HotSpot radiometric kinase assay, inhibition of EGFR (D770_N771insNPG) mutant; type: biochemical; conditions: 33P ATP, room temperature, 120 m
Procedure, shortened: as §2

EGFR WT = EGFR WT (Homo sapiens, UniProt P00533); assay: HotSpot radiometric kinase assay, inhibition of EGFR WT; type: biochemical; conditions: 33P ATP, room temperature, 120 m
Chain of EGFR WT (P00533 25-1210): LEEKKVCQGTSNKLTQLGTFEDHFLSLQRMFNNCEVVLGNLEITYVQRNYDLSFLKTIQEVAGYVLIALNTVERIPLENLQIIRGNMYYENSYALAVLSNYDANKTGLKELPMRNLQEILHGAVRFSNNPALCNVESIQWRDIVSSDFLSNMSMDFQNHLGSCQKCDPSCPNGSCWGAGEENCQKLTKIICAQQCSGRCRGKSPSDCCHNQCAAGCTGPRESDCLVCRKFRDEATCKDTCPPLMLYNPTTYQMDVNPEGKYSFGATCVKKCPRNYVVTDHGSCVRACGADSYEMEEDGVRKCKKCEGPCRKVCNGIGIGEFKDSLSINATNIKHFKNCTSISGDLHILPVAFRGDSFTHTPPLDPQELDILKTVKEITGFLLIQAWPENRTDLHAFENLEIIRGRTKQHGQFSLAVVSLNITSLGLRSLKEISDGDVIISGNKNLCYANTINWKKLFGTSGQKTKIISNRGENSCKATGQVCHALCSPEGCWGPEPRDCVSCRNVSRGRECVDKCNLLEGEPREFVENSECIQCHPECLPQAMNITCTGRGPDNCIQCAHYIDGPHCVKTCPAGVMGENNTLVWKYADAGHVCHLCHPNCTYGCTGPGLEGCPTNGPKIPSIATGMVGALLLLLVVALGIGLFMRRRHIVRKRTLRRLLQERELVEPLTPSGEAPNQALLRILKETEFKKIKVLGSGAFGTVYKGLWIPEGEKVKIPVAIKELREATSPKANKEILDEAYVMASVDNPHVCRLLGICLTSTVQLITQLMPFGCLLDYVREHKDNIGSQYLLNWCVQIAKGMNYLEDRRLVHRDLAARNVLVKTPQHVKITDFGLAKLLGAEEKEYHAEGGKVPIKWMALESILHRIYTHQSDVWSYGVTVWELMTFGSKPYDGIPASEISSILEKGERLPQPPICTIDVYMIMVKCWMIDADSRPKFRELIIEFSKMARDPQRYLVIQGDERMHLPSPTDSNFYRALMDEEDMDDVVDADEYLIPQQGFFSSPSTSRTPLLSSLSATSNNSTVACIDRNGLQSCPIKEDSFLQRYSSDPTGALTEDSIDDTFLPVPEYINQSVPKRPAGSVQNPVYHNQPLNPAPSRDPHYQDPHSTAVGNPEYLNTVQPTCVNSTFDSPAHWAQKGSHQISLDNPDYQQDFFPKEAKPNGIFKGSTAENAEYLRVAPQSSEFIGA
Procedure, shortened: as §1

[1] = molecular target: T1, pEGFR, PC-9 cells (d746-750 EGFR) (Homo sapiens, UniProt P00533, DEL746-750); assay: Cellular EGFR phosphorylation assay (LANCE Ultra TR-FRET) in PC-9 cells; type: cell-based; conditions: 4 hours at 37° C., read-out: PC-9 pEGFR IC50
T1 construct: pEGFR (Tyr1068) TR-FRET
Procedure, shortened: (§3)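 pEGFR Tyr1068 TR-FRET readout, lysates after 4 h compound exposure (37 °C, 5% CO2); 9-dose 3-fold series. A431 only: EGF 40 ng/mL for last 10 min. IC50 from curve fit.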

[2] = molecular target: T2, pEGFR, NCI-H1975 cells (L858R/T790M EGFR) (Homo sapiens, UniProt P00533, L858R/T790M); assay: Cellular EGFR phosphorylation assay (LANCE Ultra TR-FRET) in NCI-H1975 cells; type: cell-based; conditions: 4 hours at 37° C., read-out: H1975 pEGFR IC50
T2 construct: pEGFR (Tyr1068) TR-FRET
Procedure, shortened: as §3

[3] = molecular target: T3, pEGFR, A431 cells (wildtype EGFR) (Homo sapiens, UniProt P00533); assay: Cellular EGFR phosphorylation assay (LANCE Ultra TR-FRET) in A431 cells; type: cell-based; conditions: 4 hours at 37° C., 40 ng/mL EGF for the final 10 minutes, read-out: A431 pEGFR IC50
T3 construct: pEGFR (Tyr1068) TR-FRET
T3 sequence (P00533 25-1210): as above
Procedure, shortened: as §3

PC-9 cells = assay: 5-Day CellTiter Glo (CTG) cell proliferation assay, PC-9; type: cell-based; conditions: Homo sapiens; PC-9 cells (d746-750 EGFR), 5-day CTG proliferation, 120 hours; read-out: PC-9 IC50
Procedure, shortened: (§4)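 Luminescent ATP signal (CellTiter-Glo 2.0) after 120 hours of compound exposure gave IC50 values. PC-9 and HCC827 harbour EGFR d746-750; NCI-H1975 harbours L858R/T790M.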

NCI-H1975 cells = assay: 5-Day CellTiter Glo (CTG) cell proliferation assay, NCI-H1975; type: cell-based; conditions: Homo sapiens; NCI-H1975 cells (L858R/T790M EGFR), 5-day CTG proliferation, 120 hours; read-out: H1975 IC50
Procedure, shortened: as §4

HCC827 cells = assay: 5-Day CellTiter Glo (CTG) cell proliferation assay, HCC827; type: cell-based; conditions: Homo sapiens; HCC827 cells (d746-750 EGFR), 5-day CTG proliferation, 120 hours; read-out: HCC827 IC50
Procedure, shortened: as §4

[4] = tested on: BaF3 cells with engineered EGFR L858R/T790M/C797S; assay: 3-Day CellTiter Glo (CTG) cell proliferation assay, BaF3 EGFR L858R/T790M/C797S; type: cell-based; conditions: Mus musculus, 3-day CTG proliferation, 72 hours
Procedure, shortened: (§5)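 Growth inhibition in transgene-bearing BaF3 lines was scored after three days of compound treatment by CellTiter-Glo 2.0 ATP luminescence, yielding IC50 values.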

[5] = tested on: BaF3 cells with engineered EGFR L858R/C797S; assay: 3-Day CellTiter Glo (CTG) cell proliferation assay, BaF3 EGFR L858R/C797S; type: cell-based; conditions: Mus musculus, 3-day CTG proliferation, 72 hours
Procedure, shortened: as §5

[6] = tested on: BaF3 cells with engineered EGFR d746-750/T790M; assay: 3-Day CellTiter Glo (CTG) cell proliferation assay, BaF3 EGFR d746-750/T790M; type: cell-based; conditions: Mus musculus; BaF3 EGFR d746-750/T790M cells, 3-day CTG proliferation, 72 hours
Procedure, shortened: as §5

Chain of EGFR (L858R) (P00533 25-1210 L858R): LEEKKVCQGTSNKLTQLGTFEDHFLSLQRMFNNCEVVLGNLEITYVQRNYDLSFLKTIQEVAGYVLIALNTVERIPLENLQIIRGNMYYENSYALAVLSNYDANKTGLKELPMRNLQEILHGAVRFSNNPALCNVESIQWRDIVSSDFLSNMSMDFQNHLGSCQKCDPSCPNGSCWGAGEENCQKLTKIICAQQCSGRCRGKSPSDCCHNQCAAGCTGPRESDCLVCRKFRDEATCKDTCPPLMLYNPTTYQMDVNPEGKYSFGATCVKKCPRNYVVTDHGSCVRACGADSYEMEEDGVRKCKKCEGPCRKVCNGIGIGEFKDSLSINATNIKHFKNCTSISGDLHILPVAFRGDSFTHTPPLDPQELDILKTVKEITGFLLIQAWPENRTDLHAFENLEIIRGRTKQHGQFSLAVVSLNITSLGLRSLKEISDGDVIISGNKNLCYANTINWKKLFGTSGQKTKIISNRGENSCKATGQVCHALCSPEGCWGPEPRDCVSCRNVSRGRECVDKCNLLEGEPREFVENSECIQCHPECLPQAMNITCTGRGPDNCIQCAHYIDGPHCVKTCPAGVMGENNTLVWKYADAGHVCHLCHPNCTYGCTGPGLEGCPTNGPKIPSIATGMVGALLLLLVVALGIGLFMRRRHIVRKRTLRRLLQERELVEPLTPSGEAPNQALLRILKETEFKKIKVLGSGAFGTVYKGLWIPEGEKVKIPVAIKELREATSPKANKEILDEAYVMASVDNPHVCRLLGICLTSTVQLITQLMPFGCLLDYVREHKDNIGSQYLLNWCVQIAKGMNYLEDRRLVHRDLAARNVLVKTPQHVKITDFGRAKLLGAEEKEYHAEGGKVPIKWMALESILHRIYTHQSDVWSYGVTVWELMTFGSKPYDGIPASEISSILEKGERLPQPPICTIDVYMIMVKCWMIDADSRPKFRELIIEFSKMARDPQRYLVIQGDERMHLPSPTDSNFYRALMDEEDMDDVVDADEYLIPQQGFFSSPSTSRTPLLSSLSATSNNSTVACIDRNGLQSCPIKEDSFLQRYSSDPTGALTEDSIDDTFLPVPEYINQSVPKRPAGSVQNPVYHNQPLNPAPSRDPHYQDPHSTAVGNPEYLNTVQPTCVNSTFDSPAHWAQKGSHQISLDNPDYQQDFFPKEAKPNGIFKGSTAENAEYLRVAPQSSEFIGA

CCOc1nn([C@@H](C)CO)c2c1/C=C/c1n[nH]c3cnc(cc13)-c1c(C)nn(C)c1O[C@@H](C)CN(CC)C2 [Ex. 26, (2S)-2-[(10S,17E)-16-ethoxy-12-ethyl-6,8,10-trimethyl-2,8,10,11,12,13-hexahydro-14H-5,3-(azenometheno)tripyrazolo[3,4-f:3′,4′-j:4″,3″-n][1,4]oxazacyclopentadecin-14-yl]propan-1-ol]
pIC50 (EGFR (L858R)): 8.62
pIC50 (EGFR (L858R/T790M)): 8.84
pIC50 (EGFR (L858R/T790M/C797S)): 9.03
pIC50 (EGFR (D746-750)): 9.14
pIC50 (EGFR (D746-750/C797S)): 8.71
pIC50 (EGFR (D770_N771insNPG)): 9.05
pIC50 (EGFR WT): 9.10
pIC50 [1]: 8.80
pIC50 [2]: 8.47
pIC50 [3]: 7.91
pIC50 (PC-9 cells): 9.36
pIC50 (NCI-H1975 cells): 8.95
pIC50 (HCC827 cells): 9.57
pIC50 [4]: 8.94
pIC50 [5]: 9.96
pIC50 [6]: 9.18

CCOc1nn([C@@H](C)CO)c2c1/C=C/c1n[nH]c3c(C)nc(cc13)-c1c(C)nn(C)c1O[C@H](C)[C@H]1CCCN1C2 [Ex. 180, (2S)-2-[(8aR,9R,19E)-1-ethoxy-9,11,13,21-tetramethyl-7,8,8a,9,11,17-hexahydro-6H-14,16-(azenometheno)tripyrazolo[3,4-f:3′,4′-j:4″,3″-n]pyrrolo[2,1-c][1,4]oxazacyclopentadecin-3(4H)-yl]propan-1-ol]
pIC50 (EGFR (L858R)): 9.82
pIC50 (EGFR (L858R/T790M)): 9.80
pIC50 (EGFR (L858R/T790M/C797S)): 9.89
pIC50 (EGFR (D746-750)): 9.68
pIC50 (EGFR (D746-750/C797S)): 9.68
pIC50 (EGFR (D770_N771insNPG)): 10.00
pIC50 (EGFR WT): 10.30
pIC50 [1]: 9.19
pIC50 [2]: 8.81
pIC50 [3]: 8.22
pIC50 (PC-9 cells): 9.15
pIC50 (NCI-H1975 cells): 9.02
pIC50 (HCC827 cells): 9.47
pIC50 [4]: 9.16
pIC50 [5]: 10.22
pIC50 [6]: 9.24

CCOc1nn(CCO)c2c1/C=C/c1n[nH]c3cnc(cc13)-c1c(C)nn(C)c1OC[C@H](C)N(CC)C2 [Ex. 16, 2-[(11S,17E)-16-ethoxy-12-ethyl-6,8,11-trimethyl-2,8,10,11,12,13-hexahydro-14H-5,3-(azenometheno)tripyrazolo[3,4-f:3′,4′-j:4″,3″-n][1,4]oxazacyclopentadecin-14-yl]ethan-1-ol]
pIC50 (EGFR (L858R)): 9.21
pIC50 (EGFR (L858R/T790M)): 8.86
pIC50 (EGFR (L858R/T790M/C797S)): 8.34
pIC50 (EGFR (D746-750)): 9.18
pIC50 (EGFR (D746-750/C797S)): 8.84
pIC50 (EGFR (D770_N771insNPG)): 9.17
pIC50 (EGFR WT): 9.35
pIC50 [1]: 8.36
pIC50 [2]: 8.28
pIC50 [3]: 7.70
pIC50 (PC-9 cells): 8.25
pIC50 (NCI-H1975 cells): 7.57
pIC50 (HCC827 cells): 9.06
pIC50 [4]: 8.71
pIC50 [5]: 9.47
pIC50 [6]: 9.18

CCOc1nn([C@@H](C)CO)c2c1/C=C/c1n[nH]c3c(C)nc(cc13)-c1c(C)nn(C)c1O[C@@H](C)CN(C)C2 [Ex. 54, (2S)-2-[(10S,17E)-16-ethoxy-6,8,10,12,20-pentamethyl-2,8,10,11,12,13-hexahydro-14H-5,3-(azenometheno)tripyrazolo[3,4-f:3′,4′-j:4″,3″-n][1,4]oxazacyclopentadecin-14-yl]propan-1-ol]
pIC50 (EGFR (L858R)): 9.49
pIC50 (EGFR (L858R/T790M)): 8.98
pIC50 (EGFR (L858R/T790M/C797S)): 9.19
pIC50 (EGFR (D746-750)): 9.17
pIC50 (EGFR (D746-750/C797S)): 9.32
pIC50 (EGFR (D770_N771insNPG)): 9.26
pIC50 (EGFR WT): 9.42
pIC50 [1]: 9.17
pIC50 [2]: 9.03
pIC50 [3]: 7.97
pIC50 (PC-9 cells): 9.11
pIC50 (NCI-H1975 cells): 9.00
pIC50 (HCC827 cells): 9.39
pIC50 [4]: 9.26
pIC50 [5]: 10.22
pIC50 [6]: 9.26

CCOc1nn(CCO)c2c1/C=C/c1n[nH]c3cnc(cc13)-c1c(C)nn(C)c1OC[C@@H](C)N(CC)C2 [Ex. 18, 2-[(11R,17E)-16-ethoxy-12-ethyl-6,8,11-trimethyl-2,8,10,11,12,13-hexahydro-14H-5,3-(azenometheno)tripyrazolo[3,4-f:3′,4′-j:4″,3″-n][1,4]oxazacyclopentadecin-14-yl]ethan-1-ol]
pIC50 (EGFR (L858R)): 9.29
pIC50 (EGFR (L858R/T790M)): 8.95
pIC50 (EGFR (L858R/T790M/C797S)): 8.39
pIC50 (EGFR (D746-750)): 9.35
pIC50 (EGFR (D746-750/C797S)): 8.88
pIC50 (EGFR (D770_N771insNPG)): 9.23
pIC50 (EGFR WT): 9.37
pIC50 [1]: 8.49
pIC50 [2]: 8.05
pIC50 [3]: 7.81
pIC50 (PC-9 cells): 8.67
pIC50 (NCI-H1975 cells): 7.71
pIC50 (HCC827 cells): 9.28
pIC50 [4]: 8.61
pIC50 [5]: 9.54
pIC50 [6]: 8.84

CCN1Cc2c(c(OCC#N)nn2CCO)/C=C/c2n[nH]c3cnc(cc23)-c2c(C)nn(C)c2O[C@@H](C)C1 [Ex. 23, {[(10S,17E)-12-ethyl-14-(2-hydroxyethyl)-6,8,10-trimethyl-2,10,11,12,13,14-hexahydro-8H-5,3-(azenometheno)tripyrazolo[3,4-f:3′,4′-j:4″,3″-n][1,4]oxazacyclopentadecin-16-yl]oxy}acetonitrile]
pIC50 (EGFR (L858R)): 8.99
pIC50 (EGFR (L858R/T790M)): 9.22
pIC50 (EGFR (L858R/T790M/C797S)): 9.33
pIC50 (EGFR (D746-750)): 9.44
pIC50 (EGFR (D746-750/C797S)): 9.00
pIC50 (EGFR (D770_N771insNPG)): 9.54
pIC50 (EGFR WT): 9.51
pIC50 [1]: 8.47
pIC50 [2]: 8.23
pIC50 [3]: 7.37
pIC50 (PC-9 cells): 8.54
pIC50 (NCI-H1975 cells): 8.00
pIC50 (HCC827 cells): 9.39
pIC50 [4]: 8.57
pIC50 [5]: 9.37
pIC50 [6]: 8.42
